# Results taken from PubChem BioAssay AID2744 (NMMLSC, 2010).
# Active and inactive are the calls of the source.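 Rule for the calls: active = fitted half-maximal concentration for changing reporter fluorescence at or below a set limit; inactive = the rest.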
# Biological target: Citrate synthase, peroxisomal (Saccharomyces cerevisiae (strain ATCC 204508 / S288c)) (UniProt P08679)
# Test: yeast TOR pathway CIT2-GFP reporter potency – flow cytometry, MLPCN hits, dose response (AID 2744)
# Conditions: S. cerevisiae CIT2-GFP strain, 3 h, at 33 µM (top of the series)
# Citrate synthase, peroxisomal (Saccharomyces cerevisiae (strain ATCC 204508 / S288c)), sequence (P08679 whole entry, looked up): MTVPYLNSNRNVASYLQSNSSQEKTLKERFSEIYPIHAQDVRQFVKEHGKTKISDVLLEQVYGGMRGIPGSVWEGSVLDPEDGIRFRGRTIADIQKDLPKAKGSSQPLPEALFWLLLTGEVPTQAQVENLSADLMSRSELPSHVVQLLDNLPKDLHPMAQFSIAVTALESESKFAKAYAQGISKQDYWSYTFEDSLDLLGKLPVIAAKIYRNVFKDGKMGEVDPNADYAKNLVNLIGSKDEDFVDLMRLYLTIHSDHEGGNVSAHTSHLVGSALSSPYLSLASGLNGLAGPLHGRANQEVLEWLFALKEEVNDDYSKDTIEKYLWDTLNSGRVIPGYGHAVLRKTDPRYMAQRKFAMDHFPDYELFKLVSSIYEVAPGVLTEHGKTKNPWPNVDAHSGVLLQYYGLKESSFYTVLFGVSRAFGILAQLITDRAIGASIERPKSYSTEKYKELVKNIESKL
row,SMILES,"GFP fluorescence, higher = induction"
1,COc1cc(/C=C/c2ccc3c(Br)cc(Br)c(O)c3n2)ccc1O,inactive
2,O=C(Oc1c(Cl)cc(Cl)c2cccnc12)c1ccco1,inactive
3,CCCc1nnc(NC(=O)c2c(O)c3cccc4c3n(c2=O)CCC4)s1,inactive
4,COc1cccc2cc(-c3nc4ccccc4o3)c(=O)oc12,inactive
5,COc1cccc(/C=N/Nc2ccc([N+](=O)[O-])cn2)c1O,inactive
6,Cc1ccccc1[C@]1(C)ON(c2ccccc2C(F)(F)F)C1=O,inactive
7,CC1=NNC(=O)/C1=C\c1cn(-c2ccccc2)nc1-c1ccccc1,inactive
8,COc1ccc(/C=C/C(=O)NC(=S)NNC(=O)c2cnccn2)cc1,inactive
9,CC(C)[C@]1(c2ccc(Cl)cc2)ON(c2ccccc2C(F)(F)F)C1=O,inactive
10,CC(=O)Oc1oc(-c2ccccc2)nc1C=Nc1ccc(N(C)C)cc1,inactive
11,CCCCCCCCC/C(=N\O)c1ccccn1,inactive
12,Cn1ncc(S(=O)(=O)Cc2ccccc2)c(Cl)c1=O,inactive
13,Cc1[nH]c(-c2ccccn2)nc(=S)c1Cl,inactive
14,COc1ccccc1N=Nc1ccc(O)c2ncccc12,inactive
15,O=C1c2cccc3c([N+](=O)[O-])ccc(c23)C(=O)N1O,inactive
16,O=C1C=CC(=O)N1N(c1ccccc1)c1ccccc1,inactive
17,Nc1ccc(Br)c2c1C(=O)c1ccccc1C2=O,inactive
18,Cc1ccc(S(=O)(=O)c2ccc([N+](=O)[O-])cn2)cc1,inactive
19,COc1cccc(/C=C/C(=O)c2c(O)cc(C)oc2=O)c1O,inactive
20,CC1=C(C)/C(=N\OS(=O)(=O)c2ccccc2)C=CC1=O,inactive
21,O=C1c2ccccc2C(=O)N1OS(=O)(=O)c1ccc(F)cc1,inactive
22,O=[N+]([O-])c1cc(Cl)cc(/C=N\Nc2ccccn2)c1O,inactive
23,COc1ccc(C(=O)/C=C2/C(=O)Nc3ccccc32)cc1OC,inactive
24,O=C(O)c1ccn2c(C(=O)c3ccccc3)c(-c3ccccc3)cc2c1,inactive

row,SMILES,"GFP fluorescence, higher = induction"
1,O=C(OCC(=O)N1CCN(C(=O)c2ccco2)CC1)c1cc(-c2ccc(Cl)c(Cl)c2Cl)nc2ccccc12,inactive
2,COc1ccc(-c2cc3nc4n(c(=O)c3s2)CCC4)cc1,inactive
3,CC1=C/C(=N\OS(=O)(=O)c2ccccc2)C(C)=CC1=O,inactive
4,CCOC(=O)CCS(=O)(=O)c1nc(-c2ccccc2)cc(C(F)(F)F)n1,inactive
5,O=C1c2ccccc2C(=O)C2OC12 (stereo not given),inactive
6,Cc1ccc(N=Nc2ccc(O)c3ncccc23)cc1,inactive
7,O=c1c(-c2ccc(Cl)cc2)[n+]([O-])c2ccccc2n1O,inactive
8,Cc1ccc(C)c(/C=C/C(=O)c2ccccc(=O)c2O)c1,inactive
9,Cc1ccc(/C=C2\SC(=S)N(CC3CCCO3)C2=O)o1 (stereo not given),inactive
10,O=C1C=C(c2ccccc2)C(=O)N1Nc1ccccc1,inactive
11,Cc1ccc(S(=O)(=O)/N=C(\Sc2ccccc2)c2ccccc2)cc1,inactive
12,O=C(CCS(=O)(=O)c1ccccc1)Nc1nc(-c2ccccn2)cs1,inactive
13,CCCc1ccc(OCC(=O)NNC(=S)NC(=O)c2ccco2)cc1,inactive
14,Cc1ccc(NC(=O)c2cc(N3C(=O)C=CC3=O)ccc2Cl)cc1C,inactive
15,Cc1ccc(C(=O)Sc2cccccc2=O)cc1,inactive
16,O=C1C=CC(=O)N1c1cccc(-c2ccccc2)c1,inactive
17,O=C1Oc2ccccc2C(=O)/C1=C/c1ccccc1O,inactive
18,c1ccc(-c2csc(Nc3cccnc3)n2)nc1,inactive
19,COc1ccc(-c2cc(C(F)(F)F)nc(S(C)(=O)=O)n2)cc1,inactive
20,N#Cc1c2ccc([N+](=O)[O-])cc2[n+]([O-])n1-c1ccccc1,inactive
21,O=C(NOC(=O)c1ccccc1)c1ccccc1,inactive
22,COc1cc(N=c2ssnc2Cl)c(OC)cc1Cl,inactive
23,CCOc1ccc(C(C)=O)cc1N1C(=O)C2C3C=CC(O3)C2C1=O (stereo not given),inactive
24,O=C(OCC(=O)N1CCN(C(=O)c2ccco2)CC1)c1cc(-c2ccccc2)nc2ccccc12,inactive

row,SMILES,"GFP fluorescence, higher = induction"
1,CCn1c(=O)c(C(C)=O)c(O)c2ccccc21,inactive
2,Cc1ccc(/C=C2\C(=O)NC(=S)N(c3ccc(F)cc3)C2=O)s1,inactive
3,CC1=NNC(=O)/C1=C\c1cn(-c2ccccc2)nc1-c1cccs1,inactive
4,COc1ccc(CCNC2=C(Cl)C(=O)N(CCc3ccc(OC)c(OC)c3)C2=O)cc1OC,inactive
5,Cc1[nH]c2ccccc2c1C(=O)COC(=O)c1ccc([N+](=O)[O-])s1,inactive
6,O=c1c2cc(Br)ccc2nc(-c2ccc([N+](=O)[O-])cc2)n1O,inactive
7,COc1ccc([C@@]2(C(C)C)ON(c3ccccc3C(F)(F)F)C2=O)cc1,inactive
8,CN(C)c1ccc(N=Cc2nc(-c3ccccc3)oc2OC(=O)c2ccccc2)cc1,inactive
9,CN1C(=O)/C(=N\OC(=O)c2cccc3ccccc23)c2ccccc21,inactive
10,CN(C)/C=C/C(=O)c1ccc(-c2ccc(Cl)cc2Cl)o1,inactive
11,O=[N+]([O-])c1cc(CN2CCN(c3ccccc3)CC2)c(O)c2ncccc12,inactive
12,Cc1ccc2[nH]c(C)c(/C=C/c3cc[n+](C)cc3)c2c1,inactive
13,Cc1cc(C)c2c(c1)/C(=C/C(=O)c1ccc(Br)s1)C(=O)N2,inactive
14,Cc1cccc(NC(c2ccc(C)s2)c2ccc3ccc(C)nc3c2O)n1 (stereo not given),inactive
15,COc1ccc(/C=C/C(=O)C2C(=O)C=C(C)OC2=O)cc1O (stereo not given),inactive
16,CCOC(=O)CSC1=NC(=O)/C(=C/c2ccc(Br)cc2)S1,inactive
17,O=C(Nc1ccc(O)cc1)C1CCCN1S(=O)(=O)c1ccc(F)cc1 (stereo not given),inactive
18,COc1ccc(N2CCN(C(=O)c3ccc(Br)cc3)CC2)c([N+](=O)[O-])c1,inactive
19,Cc1[nH]n(-c2ccccc2)c(=O)c1C(c1ccccc1[N+](=O)[O-])C(C#N)C#N (stereo not given),inactive
20,O=C1N(c2ccccc2C(F)(F)F)O[C@]1(c1ccccc1)C1CCCC1,inactive
21,CC(=O)OC[C@]12CC[C@H]3[C@@](C)(CC[C@H]4C(C)(C)CCC[C@]34C)[C@@H]1C[C@H](C1=CC(=O)O[C@@H]1OC(C)=O)O2,inactive
22,CCOc1cc(C=C2C(=O)c3ccccc3C2=O)ccc1OCC(=O)Nc1ccc(C)cc1,inactive
23,Nc1c(C(=O)c2cccs2)sc2nsc(SCCN3CCCCC3)c12,inactive
24,O=[N+]([O-])c1ccc(O)c2ncccc12,inactive

row,SMILES,"GFP fluorescence, higher = induction"
1,Cc1ccc(C(=O)NNC(=S)NC(=O)c2ccco2)cc1,inactive
2,CN(c1ccccc1)c1ccc(/C=c2\s/c(=C(/C#N)C(=O)C(C)(C)C)n(Cc3ccco3)c2=O)cc1,inactive
3,N/C(=N\OC(=O)c1cccc(Br)c1)c1ccccc1,inactive
4,O=C1N(c2ccccc2C(F)(F)F)O[C@]1(c1ccccc1)C1CCCCC1,inactive
5,O=C(Oc1cccc2cccnc12)c1ccc(Br)o1,inactive
6,Cc1ccc(N2C(=O)CC(Sc3ncn[nH]3)C2=O)cc1C (stereo not given),inactive
7,CCn1c(/C=C/c2ccc([N+](=O)[O-])o2)nc2ccccc2c1=O,inactive
8,CCN(CC(=O)NC(C)(C)C)C(=O)COc1c(Cl)cc(Cl)c2ccc(C)nc12,inactive
9,O=C1C(Cl)=C(Nc2ccccc2O)C(=O)N1c1ccccc1,inactive
10,Nc1ccccc1SC(C[N+](=O)[O-])c1ccccc1 (stereo not given),inactive
11,N#C/C(=C\c1cc(Br)ccc1F)C(=O)NC1CC1,inactive
12,O=C(NNC(=S)NC(=O)C12CC3CC(CC(C3)C1)C2)c1ccncc1,inactive
13,Cc1cccc2c1NC(=O)/C2=C\C(=O)c1cccs1,inactive
14,CCCCOc1ccc(C(=O)NNC(=S)NC(=O)CC)cc1,inactive
15,CC(C)(C)C(=O)NC(=S)NNC(=O)c1ccc(-c2ccccc2)cc1,inactive
16,CCN(CC(=O)Nc1cc(S(=O)(=O)N2CCOCC2)ccc1Cl)Cc1ccccc1,inactive
17,COc1cc(/C=C2\CC/C(=C\c3cc(OC)c(O)c(OC)c3)C2=O)cc(OC)c1O,inactive
18,Cc1ccccc1OCC(=O)NNC(=S)NC(=O)c1ccco1,inactive
19,Cc1ccc(S(=O)(=O)N2CCCC2C(=O)NCc2ccncc2)cc1 (stereo not given),inactive
20,Cn1c(=O)c(C(=O)NNC(=O)c2ccc(Br)cc2)c(O)c2ccccc21,inactive
21,O=[N+]([O-])c1ccc(Sc2nc3ccccc3o2)c([N+](=O)[O-])c1,inactive
22,CC(Oc1cccc(Cl)c1)C(=O)Nc1nc(-c2ccccn2)cs1 (stereo not given),inactive

# Same assay, conditions: S. cerevisiae CIT2-GFP strain, flow cytometry fluorescence, 3 h
row,SMILES,EC50 [µM]
1,Cc1ccc(NC(=O)ON=C2CCCC2)cc1,3.79
